Measured values reported in patent EP2706123A1, “In vitro method for determining genotoxic and non-genotoxic carcinogenicity of a compound” (Rijksinstituut Voor Volksgezondheid En Milieu, priority 2012, dated 2014).
Several values for one entry are separate records, joined by “and”; a condition that tells them apart may be missing. Identical values can stand only once.

Assays:
Zbtb16 = assay: Expression level of marker gene Zbtb16 in liver of mice exposed for 7 days (microarray); details: mouse liver, 7 days exposure; for Average Fold Changes of the expression level of marker gene Zbtb16: average of 3 - 4 independent repeat experiments, negative value = underexpression (negative inverse of Ratio), dose and route per compound in Table 8; for Fold Change of expression of Zbtb16 in individual animals: one animal per table line (suffix of Exposure label = animal number), negative value = underexpression
Nup62 = assay: Expression level of marker gene Nup62 in liver of mice exposed for 7 days (microarray); details: mouse liver, 7 days exposure; for Average Fold Changes of the expression level of marker gene Nup62: average of 3 - 4 independent repeat experiments, negative value = underexpression (negative inverse of Ratio), dose and route per compound in Table 8; for Fold Change of expression of Nup62 in individual animals: one animal per table line (suffix of Exposure label = animal number), negative value = underexpression
Cyp17a1 = assay: Expression level of marker gene Cyp17a1 in liver of mice exposed for 7 days (microarray); details: mouse liver, 7 days exposure; for Average Fold Changes of the expression level of marker gene Cyp17a1: average of 3 - 4 independent repeat experiments, negative value = underexpression (negative inverse of Ratio), dose and route per compound in Table 8; for Fold Change of expression of Cyp17a1 in individual animals: one animal per table line (suffix of Exposure label = animal number), negative value = underexpression
Anks4b = assay: Expression level of marker gene Anks4b in liver of mice exposed for 7 days (microarray); details: mouse liver, 7 days exposure; for Average Fold Changes of the expression level of marker gene Anks4b: average of 3 - 4 independent repeat experiments, negative value = underexpression (negative inverse of Ratio), dose and route per compound in Table 8; for Fold Change of expression of Anks4b in individual animals: one animal per table line (suffix of Exposure label = animal number), negative value = underexpression
9030619P08Rik = assay: Expression level of marker gene 9030619P08Rik in liver of mice exposed for 7 days (microarray); details: mouse liver, 7 days exposure; for Average Fold Changes of the expression level of marker gene 9030619P08Rik: average of 3 - 4 independent repeat experiments, negative value = underexpression (negative inverse of Ratio), dose and route per compound in Table 8; for Fold Change of expression of 9030619P08Rik in individual animals: one animal per table line (suffix of Exposure label = animal number), negative value = underexpression
LOC75771 = assay: Expression level of marker gene LOC75771 in liver of mice exposed for 7 days (microarray); details: mouse liver, 7 days exposure; for Average Fold Changes of the expression level of marker gene LOC75771: average of 3 - 4 independent repeat experiments, negative value = underexpression (negative inverse of Ratio), dose and route per compound in Table 8; for Fold Change of expression of LOC75771 in individual animals: one animal per table line (suffix of Exposure label = animal number), negative value = underexpression

SMILES | Average Fold Changes of the expression level of marker gene Zbtb16 (Zbtb16) | Fold Change of expression of Zbtb16 in individual animals (Zbtb16) | Average Fold Changes of the expression level of marker gene Nup62 (Nup62) | Fold Change of expression of Nup62 in individual animals (Nup62) | Average Fold Changes of the expression level of marker gene Cyp17a1 (Cyp17a1) | Fold Change of expression of Cyp17a1 in individual animals (Cyp17a1) | Average Fold Changes of the expression level of marker gene Anks4b (Anks4b) | Fold Change of expression of Anks4b in individual animals (Anks4b) | Average Fold Changes of the expression level of marker gene 9030619P08Rik (9030619P08Rik) | Fold Change of expression of 9030619P08Rik in individual animals (9030619P08Rik) | Average Fold Changes of the expression level of marker gene LOC75771 (LOC75771) | Fold Change of expression of LOC75771 in individual animals (LOC75771)
CC(=O)Nc1ccc2c(c1)Cc1ccccc1-2 [GTXC_2-AAF, 2-Acetylaminofluorene] | -2,94 | -3,61818 and -2,77847 and -3,11926 and -2,3778 | -1,51 | -1,55724 and -1,69925 and -1,3329 and -1,46527 | -1,62 | 1,364397 and -2,15504 and -2,61584 and -1,66057 | 1,87 | 1,655817 and 2,059207 and 2,270806 and 1,587469 | 1,38 | 1,187438 and 1,340597 and 1,335409 and 1,684509 | 1,64 | 1,705921 and 2,011494 and 1,050507 and 1,984839
c1ccc2c(c1)cc1ccc3cccc4ccc2c1c34 [GTXC_BaP, Benzo(a)pyrene] | -2,08 | -2,2075 and -2,73557 and -2,65608 and -1,1713 | -1,40 | -1,46302 and -1,51176 and -1,24257 and -1,41015 | 1,59 | 1,069143 and -1,57076 and 2,426957 and 3,849942 | 1,58 | 2,091694 and 1,512848 and 1,249576 and 1,590135 | 3,08 | 3,463285 and 3,508919 and 1,242329 and 5,940256 | 1,94 | 2,511058 and 2,153342 and 1,654892 and 1,573528
N.N.[Cl][Pt][Cl] [GTXC_CPPD, Cisplatin] | -3,46 | -4,28606 and -2,61037 and -3,7119 | -1,39 | -1,40437 and -1,37437 and -1,38035 | -2,48 | -4,49668 and -2,09626 and -1,61055 | 1,62 | 1,894611 and 1,416897 and 1,570269 | 1,70 | 1,882632 and 3,19679 and -1,23124 | 1,98 | 2,205733 and 1,720149 and 2,049812
CCOc1ccc(NC(C)=O)cc1 [GTXC_Phe, Phenacetin] |  | -4,26686 and -1,26966 and -2,10594 and -2,30082 |  | -1,46978 and -1,41748 and -1,3917 and -1,33382 | 1,82 | 1,929473 and -1,08575 and 2,976794 and 2,054986 |  | 1,592469 and 1,221871 and 1,552723 and 1,512243 |  | 2,591988 and 1,278319 and 1,436254 and 4,17095 |  | 1,462697 and 1,408953 and 1,858825 and 1,503018
